Experimental findings from EP0934252B1, “AMIDE DERIVATIVES AND THEIR USE AS PESTICIDES” (BAYER AG, priority 1996, dated 1998) are described below.

Structures are written as SMILES.

One data set concerns Phytophthora infestans. It is filed as in vivo. The settings on record: Tomate, protektiv; for Wirkungsgrad in %: Aufwandmenge an Wirkstoff 50 g/ha, evaluated 3 days after inoculation, 0 % = as control, 100 % = no infestation; for Wirkungsgrad: Wirkstoffaufwandmenge 50 g/ha, summary sentence in the text for both compounds.
A short description of data set [1]: logP (physical data of the preparation examples). It is filed as physicochemical.

`COc1ccc(CCNC(=O)C(=O)c2ccc3c(c2)CCCC3)cc1OC` [Beispiel 1, N-[2-(3,4-Dimethoxyphenyl)-ethyl]-2-oxo-2-(5,6,7,8-tetrahydronaphthalin-2-yl)-acetamid]: in the data set with Phytophthora infestans, the Wirkungsgrad in % is listed as 95% and the Wirkungsgrad is recorded as 90 -95%. In data set [1], the logP amounted to 3.24.

In turn, `COc1ccc(CCNC(=O)C(O)c2ccc3c(c2)CCCC3)cc1OC` (stereo not shown) [Beispiel 2, N-[2-(3,4-Dimethoxyphenyl)-ethyl]-2-hydroxy-2-(5,6,7,8-tetrahydronaphthalin-2-yl)-acetamid] gave a log partition coefficient (logP) in data set [1] of 2.43.

In the case of `COc1ccc(CCNC(=O)C(=O)c2ccc3c(c2)CCC3)cc1OC` [Beispiel 3], in the data set with Phytophthora infestans, the Wirkungsgrad in % is listed as 90% and the Wirkungsgrad is 90 -95%. In data set [1], this molecule displayed a log partition coefficient (logP) of 2.92.

In data set [1], `COc1ccc(CCNC(=O)C(=O)c2ccc3c(c2)CCCCC3)cc1OC` [Beispiel 4] registered a lipophilicity (logP) of 3.57.

Turning to `COc1ccc(CCNC(=O)C(O)c2ccc3c(c2)CCC3)cc1OC` (stereo not shown) [Beispiel 5], in data set [1], the logP was determined as 2.19.

Regarding `COc1ccc(CCNC(=O)C(O)c2ccc3c(c2)CCCCC3)cc1OC` (stereo not shown) [Beispiel 6], in data set [1], the log partition coefficient (logP) is 2.7.

For orientation: logP means the decadic logarithm of the partition coefficient of the neutral form, usually between octanol and water. Read a low logP as lower lipophilicity.
